Assay results published in ChEMBL document CHEMBL4433252, “Bypassing lantibiotic resistance by an effective nisin derivative” (Bioorg Med Chem, 2019).
Values after ≈ are worked out from the molar mass of the structure shown. Active and inactive are the calls of the source. No cut-off for these calls is given here.

Key:
[1] = test system: Lactococcus lactis; test: Growth inhibition of Lactococcus lactis NZ9000 transfected with Streptococcus agalactiae COH1 NSR S236A mutant incubated for 5 hrs by spectrophotometry; assay type: functional, organism-based; settings: NZ9000, 5 h
[2] = test system: Lactococcus lactis; test: Growth inhibition of Lactococcus lactis NZ9000 transfected with Streptococcus agalactiae COH1 NSR incubated for 5 hrs by spectrophotometry; assay type: functional, organism-based; settings: NZ9000, 5 h
[3] = test system: Enterococcus faecalis; test: Potency index, ratio of MIC for nisin to MIC for test compound for antibacterial activity against Enterococcus faecalis ATCC 29212 assessed as reduction in cell viability incubated overnight; assay type: functional
[4] = test system: Staphylococcus aureus; test: Potency index, ratio of MIC for nisin to MIC for test compound for antibacterial activity against Staphylococcus aureus ATCC 29213 assessed as reduction in cell viability incubated overnight; assay type: functional
[5] = test system: Lactococcus lactis; test: Induction of pore formation in Lactococcus lactis NZ9000 transfected with Streptococcus agalactiae COH1 NSR assessed as increase in florescence intensity at 30 nM measured after 100 secs by sytox green-based fluorescence assay; assay type: functional, organism-based
[6] = test system: Staphylococcus aureus; test: Antibacterial activity against Staphylococcus aureus ATCC 29213 assessed as reduction in cell viability incubated overnight; assay type: functional
[7] = test system: Lactococcus lactis; test: Growth inhibition of Lactococcus lactis NZ9000 transfected with pNZ-Erm plasmid incubated for 5 hrs by spectrophotometry; assay type: functional, organism-based; settings: NZ9000, 5 h
[8] = test system: Lactococcus lactis; test: (§1) Resistance index, ratio of IC50 for growth inhibition of Lactococcus lactis NZ9000 transfected with Streptococcus agalactiae COH1 NSR S236A mutant incubated for 5 hrs by spectrophotometry to IC50 for growth inhibition of Lactococcus lactis NZ9000 transfected with pNZ-Erm plasmid incubated for 5 hrs by spectrophotometry; assay type: functional
[9] = test system: Enterococcus faecalis; test: Antibacterial activity against Enterococcus faecalis ATCC 29212 assessed as reduction in cell viability incubated overnight; assay type: functional
[10] = test system: Lactococcus lactis; test: as §1, with “NSR” for “NSR S236A mutant”; assay type: functional

`C=C(NC(=O)[C@@H](NC(=O)[C@H](Cc1cnc[nH]1)NC(=O)[C@@H](NC(=O)[C@H](CO)NC(=O)[C@@H]1CCCN1C(=O)[C@H](Cc1cnc[nH]1)NC(=O)[C@@H]1CS[C@@H](C)[C@H](NC(=O)[C@H](CCCCN)NC(=O)[C@H](CCSC)NC(=O)[C@H](CC(N)=O)NC(=O)[C@@H]2CS[C@@H](C)[C@H](NC(=O)[C@H](CCCCN)NC(=O)[C@@H]3CS[C@@H](C)[C@H](NC(=O)[C@@H]4CSC[C@H](NC(=O)/C(=C/C)NC(=O)[C@@H](N)[C@@H](C)CC)C(=O)N[C@@H]([C@@H](C)CC)C(=O)NC(=C)C(=O)N[C@@H](CC(C)C)C(=O)N4)C(=O)N4CCC[C@H]4C(=O)NCC(=O)N3)C(=O)NCC(=O)N[C@@H](C)C(=O)N[C@@H](CC(C)C)C(=O)N[C@@H](CCSC)C(=O)NCC(=O)N2)C(=O)N[C@@H](C)C(=O)N[C@@H](CC)C(=O)N1)[C@@H](C)CC)C(C)C)C(=O)N[C@@H](CCCCN)C(=O)O` was tested, and the IC50 [1] was 24.1 nM, the IC50 [2] was 22.5 nM and the Ratio [3] was 7.8. The Ratio [4] was 7.8, the Activity [5] was “Active” and the MIC [6] was 10.6 µM (≈ 35.6 µg/mL). The IC50 [7] was 5.5 nM, the “Ratio IC50” value [8] was 3.5 and the MIC [9] was 10.6 µM (≈ 35.6 µg/mL). The “Ratio IC50” value [10] was 3.5.
